Measurements published in patent US11725015B2, “Macrocyclic compound and uses thereof” (President and Fellows of Harvard College, priority 2017, dated 2023).

Legend:
[1] = tested on: HEC-108 (human endometrial cancer) xenograft; assay: Antitumor effects in HEC-108 endometrial cancer xenograft model in mice as monotherapy; type: in vivo; conditions: 180 μg/kg intravenously on Day 1 and Day 8
Description: A human endometrial cancer cell line HEC-108, which had been cultured in an E-MEM containing 15% FBS and antibiotics were adjusted to a concentration of 7.14×10^7 cells/mL with medium to prepare a cell suspension. The cell suspension was inoculated in a volume of 150 μL into a subcutaneous part of a right flank of athymic mice (CAnN.Cg-Foxnlnu/CrlCrlj, female, 6 weeks old, Charles River Japan Inc.). Thirteen days after cell inoculation (Day 1), the length and the width of a tumor in each mouse were measured by using an electronic digital caliper (Mitutoyo Corporation), so as to calculate the volume of the tumor in accordance with the following calculation formula: Tumor volume (mm^3)=Longest diameter (mm)×Shortest diameter (mm)×Shortest diameter (mm)/2 Relative tumor volume (RTV)=Tumor volume (day X)/Tumor volume (the first day)
On the basis of TV, the mice were randomly grouped (Day 1). Each group was consisted in six mice. Compound (1) was dissolved in DMSO and a solution was stored in the freezer before use. Compound (1) (180 μg/kg) was diluted in saline and intravenously injected on Day 1 and Day 8.

[2] = tested on: OE21 (human squamous cell carcinoma of the esophagus); assay: In vitro antiproliferative activity, OE21; type: cell-based; conditions: OE21, 72 hours
Description: (§1) The in vitro antiproliferative assays for Compound (1) were conducted using a small panel of cancer cell lines including human squamous cell carcinoma of the esophagus (OE21, TE-8), human adenocarcinoma of the esophagus (OE33), and human uterine sarcoma (MES-SA, MES-SA-Dx5-Rx1). All cell lines were cultured in RPMI-1640 medium containing 10% FBS, and penicillin-streptomycin (culture medium), in a 5% CO2 incubator (37° C.). To each well of a 96 well plate (Becton, Dickinson and Company, 353219), 75 μL of cell suspension adjusted to a concentration of 4×10^4 cells/mL with the culture medium was added, and the cells were incubated overnight in a 5% CO2 incubator (37° C.). On the next day, 25 μL of Compound (1) in three-fold dilution series suspended in the culture medium was added to each well, and the resultant was incubated for 72 hours in a 5% CO2 incubator (37° C.). Then, cell viability was determined by CellTiter-Glo® Luminescent Cell Viability Assay (Promega) with 2013 EnVision™ Multilabel Reader (Perkin-Elmer, Wellesley, Mass.). Value of the wells containing cells without adding the test compounds was defined as 100% and the value of the wells containing no cells was defined as 0%. […] The P-gp susceptibility was calculated as the ratio of the IC50 value in MES-SA-Dx5-Rx1 cells, which overexpress P-gp, to the IC50 value in MES-SA cells.

[3] = tested on: MES-SA/Dx5-Rx1 (human uterine sarcoma, overexpress P-gp); assay: In vitro antiproliferative activity, MES-SA/Dx5-Rx1; type: cell-based; conditions: MES-SA/Dx5-Rx1, 72 hours
Description: as §1

[4] = tested on: CD31-positive vessel in the FaDu subcutaneous model; assay: Effect on CD31-positive vessel in the FaDu subcutaneous model in mice (Test Example 18); type: in vivo; conditions: five days after
Description: A human squamous cell carcinoma of the head and neck (SCCHN) cell line FaDu, which had been cultured in an RPMI-1640 medium containing 10% FBS, and penicillin-streptomycin (culture medium), was adjusted to a concentration of 5×10^7 cells/mL with culture medium to prepare a cell suspension. The cell suspension was inoculated in a volume of 100 μL into a subcutaneous part of a right flank of nude mice, 6 weeks of ages (CAnN.Cg-Foxnlnu/CrlCrlj, female, Charles River Laboratories Japan, Inc.). Ten days after cell inoculation, the mice were grouped such that averages of the tumor volumes were substantially equal among the groups. The experiment was conducted on groups each consisting of 6 mice. Each test compound was dissolved in DMSO and a solution was stored in the freezer before use. Immediately before the administration, the stock solution was diluted with saline. The test compound in saline was intravenously administered at 20 μg/kg, […]. Five days after the single administration, tumor samples were collected and fixed with IHC Zinc Fixative (BD Pharmingen) at 4° C. for 24 hours. Paraffin-embedded tissues were sectioned (3 μm), mounted on positively charged slides, and air-dried. Immunohistochemical staining of CD31 was conducted using Ventana autostainer model Discover XT (Roche Diagnostics) according to the manufacture's protocol. Sections were deparaffinized, conditioned and the antigens were retrieved with CC1 (Ventana Medical Systems). […] The number of blood vessels in the whole tumor was quantified by counting the CD31-positive objects using inform 2 software (PerkinElmer Inc.) Area of the tumor region was measured by assessing the hematoxylin-staining area using inform 2 software (PerkinElmer Inc.) The number of blood vessels was normalized by the area of the tumor region. […] The ratios of blood vessel number in the test compound-dosing groups compared to non-treat group were calculated with the below formula: Tumor vessel ratio=blood vessel number of the test compound-dosing group/blood vessel number of the non-treat group)

[5] = tested on: HT-1080 (human fibrosarcoma) xenograft; assay: Antitumor effects in HT-1080 soft tissue sarcoma xenograft model in mice as monotherapy; type: in vivo; conditions: 180 μg/kg intravenously on Day 1 and Day 8
Description: A human fibrosarcoma cell line HT-1080, which had been cultured in an E-MEM containing 10% FBS, NEAA and antibiotics was adjusted to a concentration of 3×10^7 cells/mL with medium to prepare a cell suspension. The cell suspension was inoculated in a volume of 100 μL into a subcutaneous part of a right flank of athymic mice (CAnN.Cg-Foxnlnu/CrlCrlj, female, 6 weeks old, Charles River Japan Inc.). Six days after cell inoculation (Day 1), the length and the width of a tumor in each mouse were measured by using an electronic digital caliper (Mitutoyo Corporation), so as to calculate the volume of the tumor in accordance with the following calculation formula: Tumor volume (mm^3)=Longest diameter (mm)×Shortest diameter (mm)×Shortest diameter (mm)/2 Relative tumor volume (RTV)=Tumor volume (day X)/Tumor volume (the first day)
On the basis of TV, the mice were randomly grouped (Day 1). Each group was consisted in six mice. Compound (1) was dissolved in DMSO and a solution was stored in the freezer before use. Compound (1) (180 μg/kg) was diluted with saline and intravenously injected on Day 1 and Day 8.

Compound: C=C1C[C@@H]2CC[C@@]34C[C@H]5O[C@H]6[C@@H](O3)[C@H]3O[C@H](CC[C@@H]3O[C@H]6C5O4)CC(=O)O[C@@H]3[C@@H](C)[C@@H]4O[C@@H]5C[C@]6(C[C@@H]7O[C@]8(C[C@H](C)[C@@H]9O[C@H](CN)[C@H](O)C[C@@H]9O8)C[C@H](C)[C@@H]7O6)O[C@@H]5C[C@@H]4O[C@H]3C[C@H]3O[C@@H](CC[C@@H]1O2)C[C@@H](C)C3=C [Compound (1)]
- antitumor activity [1]: tumor growth delay
- antiproliferative activity [2]: potent antiproliferative agent
- antiproliferative activity [3]: potent antiproliferative agent
- tumor blood vessel number ([4]; single administration 20 μg/kg): increased the tumor blood vessel number
- tumor blood vessel number ([4]; single administration 60 μg/kg): increased the tumor blood vessel number
- tumor blood vessel number ([4]; single administration 180 μg/kg): increased the tumor blood vessel number
- antitumor activity [5]: tumor regression
